According to patent publication US12421254B2, “KRAS modulators and uses thereof” (Quanta Therapeutics, Inc., priority 2023, dated 2025):
pIC50: −log10 of the molar value. Read-outs that look alike come from different tables or passages of the source.

How the values were obtained:
[1] = biological target: GST-tagged KRAS-G12V (2-169) (Homo sapiens, UniProt P01116, G12V); experiment: Nucleotide exchange assay (NEA), SOS-mediated, HTRF, KRAS G12V; format: biochemical; settings: Table 4; IC50 extracted at 90 min; 80 nM SOS
Sequence of GST-tagged KRAS-G12V (2-169) (P01116 2-169 isoform P01116-2 G12V): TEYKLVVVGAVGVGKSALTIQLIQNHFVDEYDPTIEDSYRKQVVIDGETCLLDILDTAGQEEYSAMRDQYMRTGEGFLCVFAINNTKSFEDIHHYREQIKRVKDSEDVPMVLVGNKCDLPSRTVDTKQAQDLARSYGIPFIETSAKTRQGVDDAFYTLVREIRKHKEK
Excerpt: (§1) This activity is tightly regulated by GTPase activating proteins (GAPs) and guanine nucleotide exchange factors (GEFs). GEFs, such as SOS1/2, activate Ras proteins by exchanging GDP for GTP, thus returning Ras to its active conformation (Simanshu, Nissley, & McCormick, 2017). […] Homogenous time resolved fluorescence (HTRF) was used to detect SOS-mediated binding of a fluorescent GTP analog, GTP-DY-647P1 (Jena Biosciences NU-820-647P1) to GST-tagged KRAS-G12D (2-169) or to GST-tagged KRAS-G12V (2-169, Reaction Biology, MSC-11-540).
(§2) GST-tagged KRAS-G12D (2-169) and anti-GST MAb Tb Cryptate Gold (CisBio 61GSTTLB) were diluted into assay buffer (20 mM HEPES, pH 7.3, 150 mM NaCl, 5 mM MgCl2, 0.05% BSA 0.0025% NP40, 1 mM DTT) to prepare a 2.5× donor solution. 5× compound was added to the protein mixture and incubated for 1 h at RT. 2.5× acceptor solution containing SOS1cat (564-1049, Reaction Biology MSC-11-502) and GTP-DY-647P1 were then added to the donor KRAS mixture such that the final concentration of the reaction contained 0.25 nM GST-tagged KRAS-G12D (2-169), 20 nM SOScat, and 150 nM GTP-DY-647P1. The reaction was monitored using at RT with the Envision multimode plate reader (Ex/Em 337/665, […]) up to 90 minutes at 5 minute intervals. To monitor KRAS-G12V SOS-mediated nucleotide exchange, 80 nM SOS was added to reaction instead of 20 nM. All other components were the same as previously described. Data was blanked to reactions without SOS1 and % inhibition was calculated such that DMSO only =0% and blank=100%. Curve fitting was done using a 4 parameter fit. Reported IC50 values were extracted at 30 min and 90 min for the KRAS-G12D and KRAS-G12V assays, respectively.

[2] = biological target: GST-tagged KRAS-G12D (2-169) (Homo sapiens, UniProt P01116, G12D); experiment: Nucleotide exchange assay (NEA), SOS-mediated, HTRF, KRAS G12D; format: biochemical; settings: IC50 extracted at 30 min, 20 nM SOScat; for pIC50: Table 4, read-out: NEA G12D IC50
Sequence of GST-tagged KRAS-G12D (2-169) (P01116 2-169 isoform P01116-2 G12D): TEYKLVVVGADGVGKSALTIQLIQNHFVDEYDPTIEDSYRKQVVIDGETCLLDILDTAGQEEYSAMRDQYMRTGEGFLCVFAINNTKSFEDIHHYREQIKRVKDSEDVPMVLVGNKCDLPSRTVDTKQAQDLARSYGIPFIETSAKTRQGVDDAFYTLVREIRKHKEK
Excerpt: as §1, §2
NEA KRAS G12D IC50 (uM) values of selected compounds are depicted in Table 2 with compounds having a value <0.01 uM as ++++; ≥0.01 uM to 0.1 uM as +++; ≥0.1 uM to 1 uM as ++; ≥1 uM to 20 uM as +; and ≥20 uM as NA.

| SMILES | pIC50 [1] | pIC50 [2] | IC50 ([2]; Table 2, read-out: NEA-G12D (uM) IC50) [µM] |
| --- | --- | --- | --- |
| COC[C@@H]1CC[C@@H](COc2nc(N3CC4(C3)SCc3sc(N)c(C#N)c34)nc(N(CC(F)F)C(C)c3cccnc3N)n2)N1 (mixture of isomers) [Compound 211, 2-amino-1′-[4-[[(1R)-1-(2-amino-3-pyridyl)ethyl]-(2,2-difluoroethyl)amino]-6-[[(2SR,5SR)-5-(methoxymethyl)pyrrolidin-2-yl]methoxy]-1,3,5-triazin-2-yl]spiro[6H-thieno[3,4-b]thiophene-4,3′-azetidine]-3-carbonitrile] | > 8.00 | > 8.00 | – |
| CCN(c1nc(OC[C@@H]2CC[C@@H]3CN(C)CCN32)nc(N2CC3(C2)SCc2sc(N)c(C#N)c23)n1)[C@H](C)c1cccnc1N (mixture of isomers) [Compound 216, 1′-[4-[[(6SR,8aRS)-2-methyl-3,4,6,7,8,8a-hexahydro-1H-pyrrolo[1,2-a]pyrazin-6-yl]methoxy]-6-[[(1R)-1-(2-amino-3-pyridyl)ethyl]-ethyl-amino]-1,3,5-triazin-2-yl]-2-amino-spiro[6H-thieno[3,4-b]thiophene-4,3′-azetidine]-3-carbonitrile] | > 8.00 | 6.00 to 7.00 | – |
| N#Cc1c(N)sc2c1C1(CN(c3nc(OCC45CCCN4CC(F)C5)nc(N4C5CCC4C(O)C5)n3)C1)SC2 (mixture of isomers) [Compound 282, 2-amino-1′-[4-[[(2R,8S)-2-fluoro-1,2,3,5,6,7-hexahydropyrrolizin-8-yl]methoxy]-6-[(1RS,2SR,4SR)-2-hydroxy-7-azabicyclo[2.2.1]heptan-7-yl]-1,3,5-triazin-2-yl]spiro[6H-thieno[3,4-b]thiophene-4,3′-azetidine]-3-carbonitrile] | 7.00 to 8.00 | 6.00 to 7.00 | – |
| N#Cc1c(N)sc2c1C1(CC2)CN(c2nc(OC[C@@]34CCCN3C[C@H](F)C4)nc(O[C@@H]3COC[C@@H]3O)n2)C1 (racemic) [Compound 28, 2-amino-1′-[4-[[(2R,8S)-2-fluoro-1,2,3,5,6,7-hexahydropyrrolizin-8-yl]methoxy]-6-[rac-(3R,4S)-4-hydroxytetrahydrofuran-3-yl]oxy-1,3,5-triazin-2-yl]spiro[5,6-dihydrocyclopenta[b]thiophene-4,3′-azetidine]-3-carbonitrile] | 6.00 to 7.00 | 4.70 to 6.00 | – |
| C[C@@H]1[C@H](C#N)CCCN1c1nc(OC[C@@]23CCCN2C[C@H](F)C3)nc(N2CC3(CCc4sc(N)c(C#N)c43)C2)n1 (racemic) [Compound 29, 2-amino-1′-[4-[rac-(2R,3R)-3-cyano-2-methyl-1-piperidyl]-6-[[(2R,8S)-2-fluoro-1,2,3,5,6,7-hexahydropyrrolizin-8-yl]methoxy]-1,3,5-triazin-2-yl]spiro[5,6-dihydrocyclopenta[b]thiophene-4,3′-azetidine]-3-carbonitrile] | 6.00 to 7.00 | 6.00 to 7.00 | – |
| CN(c1nc(OC[C@@]23CCCN2C[C@H](F)C3)nc(N2CC3(CCc4sc(N)c(C#N)c43)C2)n1)[C@H]1COC[C@H]1O (racemic) [Compound 53, 2-amino-1′-[4-[[(2R,8S)-2-fluoro-1,2,3,5,6,7-hexahydropyrrolizin-8-yl]methoxy]-6-[[rac-(3S,4S)-4-hydroxytetrahydrofuran-3-yl]-methyl-amino]-1,3,5-triazin-2-yl]spiro[5,6-dihydrocyclopenta[b]thiophene-4,3′-azetidine]-3-carbonitrile] | 6.00 to 7.00 | 4.70 to 6.00 | – |
| N#Cc1c(N)sc2c1C1(CC2)CN(c2nc(OC[C@@]34CCCN3C[C@H](F)C4)nc(N3CCC[C@H](C#N)[C@@H]3CO)n2)C1 (racemic) [Compound 63, 2-amino-1′-[4-[rac-(2R,3S)-3-cyano-2-(hydroxymethyl)-1-piperidyl]-6-[[(2R,8S)-2-fluoro-1,2,3,5,6,7-hexahydropyrrolizin-8-yl]methoxy]-1,3,5-triazin-2-yl]spiro[3a,5-dihydrocyclopenta[b]thiophene-4,3′-azetidine]-3-carbonitrile] | 6.00 to 7.00 | 6.00 to 7.00 | – |
| N#Cc1c(N)sc2c1C1(CC2)CN(c2nc(OC[C@@]34CCCN3C[C@H](F)C4)nc(O[C@@H]3COC[C@H]3O)n2)C1 (racemic) [Compound 80, 2-amino-1′-[4-[[(2R,8S)-2-fluoro-1,2,3,5,6,7-hexahydropyrrolizin-8-yl]methoxy]-6-[rac-(3R,4R)-4-hydroxytetrahydrofuran-3-yl]oxy-1,3,5-triazin-2-yl]spiro[5,6-dihydrocyclopenta[b]thiophene-4,3′-azetidine]-3-carbonitrile; 2,2,2-trifluoroacetic acid] | 4.70 to 6.00 | – | – |
| C[C@@]1(O)CCCN(c2nc(OC[C@@]34CCCN3[C@H](COc3cc(C(F)(F)F)ncn3)CC4)nc(N3CC4(C3)SCc3sc(N)c(C#N)c34)n2)C1 (racemic) [Compound 253, 2-amino-1′-[4-[(3R)-3-hydroxy-3-methyl-1-piperidyl]-6-[[(3SR,8SR)-3-[[6-(trifluoromethyl)pyrimidin-4-yl]oxymethyl]-1,2,3,5,6,7-hexahydropyrrolizin-8-yl]methoxy]-1,3,5-triazin-2-yl]spiro[6H-thieno[3,4-b]thiophene-4,3′-azetidine]-3-carbonitrile] | > 8.00 | – | – |
| N#Cc1c(N)sc2c1C1(CN(c3nc(OC[C@@]45CCCN4C[C@H](F)C5)nc(N4[C@H]5CC[C@@H]4[C@H](C#N)C5)n3)C1)SC2 (racemic) [Compound 279, 2-amino-1′-[4-[(1RS,2RS,4SR)-2-cyano-7-azabicyclo[2.2.1]heptan-7-yl]-6-[[(2R,8S)-2-fluoro-1,2,3,5,6,7-hexahydropyrrolizin-8-yl]methoxy]-1,3,5-triazin-2-yl]spiro[6H-thieno[3,4-b]thiophene-4,3′-azetidine]-3-carbonitrile] | – | 6.00 to 7.00 | – |
| CC1(O)CCCN(c2nc(OCC34CCCN3C(COc3cc(C(F)(F)F)ncn3)CC4)nc(N3CC4(C3)SCc3sc(N)c(C#N)c34)n2)C1 (single isomer, unassigned) [Compound 256B] | – | > 8.00 | – |
| N#Cc1c(N)sc2c1C1(CCC2)CN(c2nc(OCC3(CN4CCOCC4)CC3)nc(N3CCC[C@]4(C3)NC(=O)NC4=O)n2)C1 [Compound 6, 2-amino-1′-[4-[[1-(morpholinomethyl)cyclopropyl]methoxy]-6-[(5R)-2,4-dioxo-1,3,9-triazaspiro[4.5]decan-9-yl]-1,3,5-triazin-2-yl]spiro[6,7-dihydro-5H-benzothiophene-4,3′-azetidine]-3-carbonitrile] | – | – | 0.01 to 0.1 |
| N#Cc1c(N)sc2c1C1(CN(c3nc(OC[C@@]45CCCN4C[C@H](F)C5)nc(N4CCC5(CCN5C(=O)n5cncn5)C4)n3)C1)SC2 (stereo partly drawn) [Compound 248, 2-amino-1′-[4-[[(2R,8S)-2-fluoro-1,2,3,5,6,7-hexahydropyrrolizin-8-yl]methoxy]-6-[1-(1,2,4-triazole-1-carbonyl)-1,7-diazaspiro[3.4]octan-7-yl]-1,3,5-triazin-2-yl]spiro[6H-thieno[2,3-c]thiophene-4,3′-azetidine]-3-carbonitrile] | 4.70 to 6.00 | – | – |
| N#Cc1c(N)sc2c1C1(CN(c3nc(OC[C@@]45CCCN4C[C@H](F)C5)nc(N4[C@H]5CC[C@@H]4C(=O)C5)n3)C1)SC2 [Compound 280, 2-amino-1′-[4-[[(2R,8S)-2-fluoro-1,2,3,5,6,7-hexahydropyrrolizin-8-yl]methoxy]-6-(2-oxo-7-azabicyclo[2.2.1]heptan-7-yl)-1,3,5-triazin-2-yl]spiro[6H-thieno[3,4-b]thiophene-4,3′-azetidine]-3-carbonitrile] | – | 7.00 to 8.00 | – |
